Data as given in patent US20130267500A1, “5-HT2C RECEPTOR AGONISTS IN THE TREATMENT OF DISORDERS AMELIORATED BY REDUCTION OF NORE[…]” (Arena Pharmaceuticals, Inc., priority 2010, published 2013).

Tests used:
5-HT2A receptors = 5-HT2A receptors (Homo sapiens, UniProt P28223); settings: cited from earlier work
human 5-HT2C receptors = target: T1, human 5-HT2C receptors (Homo sapiens, UniProt P28335); settings: cited from earlier work
T1 sequence (P28335 33-458): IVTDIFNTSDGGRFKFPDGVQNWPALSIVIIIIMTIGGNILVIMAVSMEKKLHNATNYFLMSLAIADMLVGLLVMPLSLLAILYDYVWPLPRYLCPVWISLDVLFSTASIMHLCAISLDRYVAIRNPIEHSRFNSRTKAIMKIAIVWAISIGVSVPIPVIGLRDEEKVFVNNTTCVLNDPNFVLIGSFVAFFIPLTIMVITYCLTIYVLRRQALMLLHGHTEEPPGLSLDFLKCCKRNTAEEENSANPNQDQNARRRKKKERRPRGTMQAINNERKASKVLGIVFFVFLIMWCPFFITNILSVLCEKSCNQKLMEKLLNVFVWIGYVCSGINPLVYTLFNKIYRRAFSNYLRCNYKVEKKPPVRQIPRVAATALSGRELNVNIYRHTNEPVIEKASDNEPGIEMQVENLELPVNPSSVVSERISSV

5-HT2B receptors = 5-HT2B receptors (Homo sapiens, UniProt P41595); settings: cited from earlier work
[1] = 56-day placebo-controlled study: safety (adverse events, ECG, BDI-II); assay type: in vivo, human
Procedure: (§1) A fifty-six-day, double-blind, randomized, placebo-controlled, parallel-group study was conducted to assess the effects of lorcaserin hydrochloride administration to overweight and obese male and female patients. The study was completed according to the guidelines of Good Clinical Practice and was conducted in full compliance with the World Medical Association Declaration of Helsinki and its most recent amendments.
(§2) Fifty-seven overweight or obese adult male and female subjects aged 18 to 65 years inclusive were randomized to one of two treatment groups: placebo or lorcaserin hydrochloride (10 mg) twice-a-day (BID) for 56 days. The majority of subjects were female (68.4%) and Caucasian (63.2%). […] Patients were required to participate in the Arena Healthy Lifestyle Program®, designed specifically for this study, which included a 600 kcal deficit diet and 30 minutes of moderate exercise per day.
(§3) Each subject underwent screening procedures within 28 days or sooner, prior to dosing on Day 1, over 3 screening visits (Days −28, −14, and −7). This was followed by an initial inpatient period of 4 days, a 3-day outpatient period, a second 4-day inpatient period, a second outpatient period over 45 days which included 7 visits, and a final 3-day inpatient period. Fifty-three subjects completed the study.
(§4) Lorcaserin formulation is composed of white tablets containing lorcaserin (active) and excipients (silicified microcrystalline cellulose NF, hydroxypropyl cellulose NF, croscarmellose sodium NF, magnesium stearate NF and Opadry® II white). The placebo is composed of white tablets containing excipients.
(§5) All enrolled patients received two oral doses per day (one dose in the morning prior to breakfast and one dose in the evening prior to dinner) of study medication (lorcaserin or placebo) for 56 days. Dosing was performed in a double-blind manner so that neither the patient nor the Investigator knew which treatment had been assigned. Patients were told to take the study medication each morning and evening approximately 60 minutes before breakfast and dinner and were encouraged to take the study medication with an adequate amount of water (8 oz or 240 mL). Patients were asked not to crush, break, chew, or dissolve the tablets.
A 12-lead ECG was performed at screening (baseline), and during the exit visit (Day 57). […] Individual subjects experienced abnormalities at all time points including baseline. […] None of the abnormalities were clinically significant.
Serial assessments of depression were performed during the study at Days −2, +6 and +55 (Beck Depression Inventory-II (BDI-II)).

norepinephrine = assay: 56-day placebo-controlled study: 24 h urine norepinephrine; assay type: in vivo, human; settings: 10 mg BID
Procedure: as §1
(§6) Fifty-seven overweight or obese adult male and female subjects aged 18 to 65 years inclusive were randomized to one of two treatment groups: placebo or lorcaserin hydrochloride (10 mg) twice-a-day (BID) for 56 days. The majority of subjects were female (68.4%) and Caucasian (63.2%). […]
(§7) The analyses of all efficacy variables used the Modified Intent-to-Treat Population (MITT) population. Patient data were analyzed according to the treatment assigned at randomization, regardless of the treatment received during the course of the trial. […] Compliance was assessed by the number of remaining tablets. […]
(§8) Mean concentrations and mean change from baseline in 24 h urine epinephrine and norepinephrine at Day 7 and Day 56 were assessed. […] Epinephrine was below the limit of quantitation in 44 of 55 available patient samples at Day 7 and 33 of 52 available samples at Day 56. […]

[2] = 56-day placebo-controlled study of lorcaserin hydrochloride: body weight; assay type: in vivo, human; settings: for Bodyweight, Mean: lorcaserin hydrochloride 10 mg BID oral
Procedure: as §1, §2, §3, §4, §5
Patients were required to fast for 10 hours prior to each study visit that requires a blood sample for clinical laboratory tests. Participants were weighed (in duplicate) at each study visit wearing a hospital gown. Efforts were made to schedule study visits prior to 10:00 a.m. to capture the fasted body weight and to reduce the variability in body weight normally observed throughout the day. Weights were measured in kilograms (kg).
The analyses of all efficacy variables used the Modified Intent-to-Treat Population (MITT) population. Patient data were analyzed according to the treatment assigned at randomization, regardless of the treatment received during the course of the trial. Inclusion was dependent on the presence of a baseline measurement, consumption of at least one study dose, and a post-randomization measurement. Patients were instructed to bring their unused study drug with them to each study visit. Compliance was assessed by the number of remaining tablets. Change from baseline or percent change from baseline is defined as the change from Day 1 (randomization) measurement. If the Day 1 measurement was not available, the last non-missing pre-randomization measurement was used as the baseline value, otherwise baseline was considered missing. […]

[3] = cited from earlier work
epinephrine = assay: 56-day placebo-controlled study: 24 h urine epinephrine; assay type: in vivo, human; settings: after 7 or 56 days of treatment; small number of evaluable samples
Procedure: as §1, §6, §7, §8

[4] = lorcaserin group, 10 mg BID, 56 days
[5] = phase 3 program, up to two years

Chain of 5-HT2A receptors (P28223 whole entry): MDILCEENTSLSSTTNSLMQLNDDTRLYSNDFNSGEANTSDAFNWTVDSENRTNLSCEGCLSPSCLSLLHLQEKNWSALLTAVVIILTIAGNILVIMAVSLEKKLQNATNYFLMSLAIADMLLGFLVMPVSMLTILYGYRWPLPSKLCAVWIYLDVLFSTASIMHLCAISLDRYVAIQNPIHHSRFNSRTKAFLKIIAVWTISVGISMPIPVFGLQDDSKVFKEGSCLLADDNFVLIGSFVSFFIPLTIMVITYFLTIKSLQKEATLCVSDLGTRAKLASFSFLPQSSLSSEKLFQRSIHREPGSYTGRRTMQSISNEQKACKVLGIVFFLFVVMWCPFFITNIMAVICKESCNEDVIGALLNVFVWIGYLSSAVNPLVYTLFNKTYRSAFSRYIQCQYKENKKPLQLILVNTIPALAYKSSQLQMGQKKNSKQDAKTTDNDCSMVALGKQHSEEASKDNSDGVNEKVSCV
Chain of 5-HT2B receptors (P41595 whole entry): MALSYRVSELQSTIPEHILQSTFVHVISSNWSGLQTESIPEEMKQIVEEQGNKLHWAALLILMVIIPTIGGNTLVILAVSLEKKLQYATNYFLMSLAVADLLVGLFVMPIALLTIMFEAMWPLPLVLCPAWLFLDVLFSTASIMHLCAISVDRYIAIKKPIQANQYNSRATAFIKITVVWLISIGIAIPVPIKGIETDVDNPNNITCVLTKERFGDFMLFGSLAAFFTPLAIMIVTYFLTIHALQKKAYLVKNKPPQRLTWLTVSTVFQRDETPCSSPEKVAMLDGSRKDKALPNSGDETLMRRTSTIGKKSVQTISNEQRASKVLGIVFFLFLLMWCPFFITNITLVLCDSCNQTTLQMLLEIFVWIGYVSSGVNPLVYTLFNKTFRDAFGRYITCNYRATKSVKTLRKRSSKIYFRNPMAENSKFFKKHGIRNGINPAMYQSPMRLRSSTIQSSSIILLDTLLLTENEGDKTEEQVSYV

SMILES: CN(C)[C@@H]1Cc2ccccc2[C@@H](c2ccccc2)C1 [(1R,3S)-(−)-trans-1-phenyl-3-dimethylamino-1,2,3,4-tetrahydronaphthalene]
- activity at 5-HT2A receptors (5-HT2A receptors): antagonist
- activity at human 5-HT2C receptors (human 5-HT2C receptors): agonist
- activity at 5-HT2B receptors (5-HT2B receptors): antagonist

SMILES: C[C@H]1CNCCc2ccc(Cl)cc21 [Lorcaserin, (R)-8-Chloro-1-methyl-2,3,4,5-tetrahydro-1H-3-benzazepine]
- deaths or serious adverse events ([1]; 10 mg BID, 56 days): No deaths or serious adverse events occurred
- early terminations due to AEs ([1]; 10 mg BID, 56 days): no early terminations due to AEs
- incidence of depression related adverse events ([1]; 10 mg BID, 56 days): did not increase
- tolerability ([1]; 10 mg BID, 56 days): generally well tolerated
- Beck Depression Inventory-II (BDI-II), difference between lorcaserin and placebo groups ([1]; Days -2, +6 and +55): No meaningful differences
- Headache, subjects with at least 1 event ([1]; lorcaserin group (29 randomized), 10 mg BID, 56 days): 11 subjects
- Dizziness, subjects reporting [1, 4]: 3 subjects
- Headache, rate of subjects with at least 1 event [1, 4]: 37.9%
- 12-lead ECG effects ([1]; screening vs exit visit (Day 57)): no apparent treatment-related effects on ECG
- 24 h norepinephrine excretion in urine (norepinephrine; after 7 days (p<0.0001)): significant decrease
- 24 h norepinephrine excretion in urine (norepinephrine; after 56 days (p<0.001)): significant decrease
- Bodyweight, Mean ([2]; Day 1 (baseline), overweight/obese patients): 96.59 kg
- Bodyweight, Mean ([2]; Day 6): 96.67 kg
- Bodyweight, Mean ([2]; Day 55): 93.84 kg
- weight loss ([2]; at 6 days, 10 mg BID): No significant weight loss
- weight loss as compared to placebo ([2]; at 55 days, 10 mg BID): Significantly greater weight loss
- excess body weight lost (normal BMI of 25) ([3]; first phase 3 trial): about one-third
- patients achieving at least 5% weight loss [3, 5]: About two-thirds
- patients achieving at least 10% weight loss [3, 5]: over one-third
- average weight lost, of their weight ([3]; phase 3 program): about 8%
- depression or suicidal ideation ([3]; phase 3 program): no signal
- heart rate and blood pressure ([3]; phase 3 program): went down
- risk of cardiac valvulopathy ([3]; phase 3 program): did not increase the risk
- average weight loss, top quartile of patients ([3]; second phase 3 trial): 35 pounds
- average weight loss, top quartile of patients, of body weight ([3]; second phase 3 trial): 16%
- 24 h epinephrine excretion (epinephrine): no change
